As usually defined, the MIC50 is an inhibitory concentration at the 50% level, which refers to growth in some studies and to a panel of isolates in others. In general, MIC90 refers to an inhibitory concentration at the 90% level, which refers to growth in some studies and to a panel of isolates in others.

One assay has as its system S. lugdunensis. Description: MIC by broth microdilution. It counts as cell-based, Staphylococcus lugdunensis. As to conditions: S. lugdunensis, N=49. As for the experimental part: (§1) Minimal inhibitory concentrations (MICs) of exebacase against staphylococci were determined by broth microdilution (BMD) using a nonstandard antimicrobial susceptibility testing (AST) medium comprised of cation-adjusted Mueller Hinton broth (caMHB) supplemented with horse serum (Sigma Aldrich) and dithiothreitol (DTT; Sigma Aldrich) to final concentrations of 25% and 0.5 mM, respectively. This medium, referred to as caMHB-HSD, is approved for use in exebacase AST by the Clinical and Laboratory Standards Institute (CLSI) (CLSI. 2017, Jan. 16-17. AST Subcommittee Working Group Meetings and Plenary. AST Meeting Files & Resources, clsi.org/education/microbiology/ast/ast-meeting-files-resources/. Additional supplementation with 2.5% lysed red blood cells (Remel™, ThermoFisher) was included for analyses of streptococcal isolates, as recommended by CLSI. See CLSI, 2015. Methods for Dilution Antimicrobial Susceptibility Tests for Bacteria That Grow Aerobically, 10th Edition. Clinical and Laboratory Standards Institute, Wayne, Pa.
(§2) Daptomycin (Sigma Aldrich) and vancomycin hydrochloride (Sigma Aldrich) were tested following the reference BMD method for each. See CLSI. 2015. Methods for Dilution Antimicrobial Susceptibility Tests for Bacteria That Grow Aerobically, 10th Edition. Clinical and Laboratory Standards Institute, Wayne, Pa.
(In broth dilution the organism is exposed to a series of concentrations in liquid medium.)

Another assay relates to all staphylococci tested. Nature of the assay: MIC by broth microdilution. It counts as cell-based. As for the experimental part:
as §2

The next assay deals with S. mitis. Description: MIC by broth microdilution. It counts as cell-based, Streptococcus mitis. As to conditions: S. mitis (viridans), N=18. The protocol:
as §1, §2

Another assay deals with S. salivarius. Nature of the assay: MIC by broth microdilution. It counts as cell-based, Streptococcus salivarius. As to conditions: S. salivarius (viridans), N=12. The protocol: as §1, §2
A further assay deals with S. pyogenes. Nature of the assay: MIC by broth microdilution. It counts as cell-based, Streptococcus pyogenes. Particulars: S. pyogenes (group A), N=100. The protocol:
as §1, §2

The next assay deals with S. pneumoniae. Description: MIC by broth microdilution. It counts as cell-based, Streptococcus pneumoniae. As to conditions: S. pneumoniae, N=59. The protocol:
as §1, §2

The subject of another assay is MRSA strain MW2. Description: Infective endocarditis rabbit model, CF-301 in series with daptomycin (Example 2). Particulars: daptomycin alone 4 mg/kg intravenously. The assay is classed as in vivo, rabbits. As for the experimental part: The rational for selection of the daptomycin dose is as follows. Daptomycin pilot dose-response experiments were performed over a range from 1 mg/kg to 10 mg/kg, administered intravenously, once daily for 4 days in the infective endocarditis rabbit model described below, which was caused by the MRSA strain, MW2. FIG. 2 depicts data for individual animals, plotted as treatment regimen versus log10 CFU/g tissue (mean±SEM are shown). From these studies, a daptomycin dose-response was defined. […] In the rabbit infective endocarditis model, a daptomycin-alone dose of 4 mg/kg administered intravenously provided about 0.25 to 1.45 log10 reduction in bacterial burden compared to vehicle-treated controls.
A well-described indwelling transcarotid artery-to-left ventricle catheter-induced model of aortic valve infective endocarditis was used in rabbits. See Xiong et al., 2011, AAC, 55:P5325-5330. At 48 hours after catheter placement, infective endocarditis was induced by intravenous inoculums of about 2×10^5 CFU (the induction of ID95 of MRSA strain MW2 in this model). […] Daptomycin administration was continued once a day for 4 days. At 24 hours after the last dose of daptomycin, animals were humanely euthanized and cardiac vegetations, kidneys, and spleens were sterilely removed and quantitatively cultured. Bacterial density for each organ for the different treatment groups were calculated as mean log10 CFU/g of tissue (±95% confidence interval).

In brackets after ≈: the same amount, converted by molar mass.

As to `CCCCCCCCCC(=O)N[C@@H](Cc1c[nH]c2ccccc12)C(=O)N[C@H](CC(N)=O)C(=O)N[C@@H](CC(=O)O)C(=O)N[C@@H]1C(=O)NCC(=O)N[C@@H](CCCN)C(=O)N[C@@H](CC(=O)O)C(=O)N[C@H](C)C(=O)N[C@@H](CC(=O)O)C(=O)NCC(=O)N[C@H](CO)C(=O)N[C@@H]([C@H](C)CC(=O)O)C(=O)N[C@@H](CC(=O)c2ccccc2N)C(=O)O[C@@H]1C` [DAP, Daptomycin], the “MIC Range” value against S. lugdunensis is 0.25 to 2 µg/mL; against all staphylococci tested, 0.125 to 2 µg/mL; against S. mitis it was 0.125 to 1 µg/mL; in the assay on S. salivarius, 0.06 to 0.5 µg/mL; with S. pyogenes it was 0.016 to 0.06 µg/mL; in the assay with S. pneumoniae, 0.06 to 0.25 µg/mL. Moreover, the MIC50 in the assay on S. lugdunensis (Staphylococcus lugdunensis, read-out: MIC50) was found to be 0.5 µg/mL (≈ 0.309 µM); with S. mitis (Streptococcus mitis, read-out: MIC50), 0.5 µg/mL (≈ 0.309 µM); in the assay on S. salivarius (Streptococcus salivarius, read-out: MIC50) it was 0.25 µg/mL (≈ 0.154 µM); with S. pyogenes (Streptococcus pyogenes, read-out: MIC50), 0.03 µg/mL (≈ 0.0185 µM); in the assay with S. pneumoniae (Streptococcus pneumoniae, read-out: MIC50), 0.125 µg/mL (≈ 0.0771 µM). Further, the MIC90 came to 1 µg/mL (≈ 0.617 µM) in the assay on S. lugdunensis (Staphylococcus lugdunensis, read-out: MIC90); 1 µg/mL (≈ 0.617 µM) with S. mitis (Streptococcus mitis, read-out: MIC90); 0.5 µg/mL (≈ 0.309 µM) in the assay with S. salivarius (Streptococcus salivarius, read-out: MIC90); 0.06 µg/mL (≈ 0.037 µM) in the assay on S. pyogenes (Streptococcus pyogenes, read-out: MIC90); 0.5 µg/mL (≈ 0.309 µM) in the assay on S. pneumoniae (Streptococcus pneumoniae, read-out: MIC90). Besides, the “bacterial burden remaining in treated animals” value in the assay with MRSA strain MW2 was 5-7 log10. Besides, the “reduction in bacterial burden compared to vehicle-treated controls” value with MRSA strain MW2 (once daily for 4 days, pilot dose-response) lay within 0.25 to 1.45 log10.
